{"source": "patent US20110213236A1", "about": "“THERAPEUTIC COMPOSITIONS, DEVICES AND METHODS FOR OBSERVING TREATED TISSUES” (IMMUNOPATH PROFILE, INC., priority 2008, published 2011)", "format_in_all_cases": "in vivo, human", "key": {"gout": {"tested_on": "gout", "assay": "Gout", "conditions": "locally added to the transdermal cream", "excerpt": "This acute musculoskeletal strain and severe foot pain occurred when getting out of bed, and standing with bare feet. The strain was associated with extensive standing and walking without their customary shoe arch support. […] The use of Advil liquid filled capsules solubilized ibuprofen locally added to the transdermal cream expedited the reversal of acute gout after one-two applications.\nWhen used transdermally on all these examples, the permeability was increased with the subsequent use of the heating pad, but in the case of the Gout, it was used at its mildest level. […] In the treatment of Gout, the patient responded first to the Resveratrol enriched transdermal cream as in Example Group 2 locally applied used 3 times daily, with Garlic powder by Oregon Wild Harvest, specially processed, air-dried, and ground with a water-cooled grinding system to avoid generating heat, was sprinkled onto the wound as an anti-fungal agent derived from the cloves and root system of the Garlic plant and serving as a GRAS item to impart the innate immunity found in the defensin adaptogen of the plant, with good success."}, "atrial fibrillation": {"tested_on": "atrial fibrillation", "assay": "Atrial fibrillation patient treated with Cardizem and subject composition", "excerpt": "We see the same effect in the remarkable drug, Levodopa, in the treatment of Parkinsonism with the side effects of stroke, heart attack, and substantia nigra, basal ganglia damage. […] The total studies were almost 30,000 in number and BIOMARKERS TISSUE […] AND […] TARGETS FOR CARDIAC […] Cardiac arrhythmia nutritional deficiencies, 496 studies compared with:\nVitamin B1 was cited as the most critical of preventing and reversing arrhythmia in starvation studies. Omega-3 fish oil was shown pre-clinically to be effective in the animal heart studies: after it was digested from and enzymatic release from glycerol was not only shown by Leaf in vitro in the isolated beating animal heart muscle to prevent toxicity effects of toxic chemicals. On our chemical moiety orientated spreadsheet where we listed more than 1,400 studies documenting the efficacy of magnesium.\nWith complete components listed in the spreadsheet of indicated diseases, giving a more complete list, provides by maximizing and optimizing efficacy and safety in the foregoing subject composition free of undesirable effects not only for the treatment of disease but for averting these undesirable side-effects. […]"}, "[1]": {"tested_on": "degenerative osteoarthritis of the knee", "assay": "Degenerative osteoarthritis of the knee and pulled ligament, lotion", "conditions": "600 mg", "method": "A dentist was diagnosed with degenerative osteoarthritis of the left knee in 2001, by an orthopedic surgeon at the Henry Ford Health System in Farmington Hillsi Mich. At that time, they were […], and was working 55 hours per week at their dental practice. The orthopedic surgeon advised a complete knee replacement since the joint space was minimal as per the M.Rt. The meniscus had worn away from athletics and job requirements. The option was chosen of using occasional steroid injections in times of severe inflammation along with the daily use of Celebrex until they could no longer function, rather than have such an irreversible traumatic operation, at their age. The doctor agreed. Their quality of life was affected as was their comfort during work.\nA few years later, the right knee ligaments were starting to weaken resulting in much pain and dysfunction, the now patient's gait was hobbled to a severe limp.\nA composition of the subject invention in lotion form was applied twice daily after warming the area with a moist-heat heating pad for a few minutes.\nPlans for a knee replacement were put on hold. The patient subsequently suffered a ligament pulled ligament in the groin. The ligament was also treated with the same composition In three days the pain was gone."}}}
{"smiles": "CC(C)Cc1ccc(C(C)C(=O)O)cc1", "note": "(stereo not drawn) [Advil, ibuprofen]", "values": [{"measurement": "applications until reversal of acute gout", "setting": "gout", "result": "one-two"}]}
{"smiles": "COc1ccc([C@@H]2Sc3ccccc3N(CCN(C)C)C(=O)[C@@H]2OC(C)=O)cc1", "note": "[Cardizem]", "values": [{"measurement": "side effects on the second dose", "setting": "atrial fibrillation", "result": "pain, inability to walk, and weakness"}]}
{"smiles": "CC(C)Cc1ccc(C(C)C(=O)O)cc1", "note": "(stereo not drawn) [Ibuprofen]", "values": [{"measurement": "effect on knee pain and dysfunction", "setting": "[1]", "result": "helpful but not therapeutic"}]}
